In patent publication US20090248141A1, “Shape Memory Polymer Medical Devices” (THE REGENTS OF THE UNIVERSITY OF COLORADO, priority 2006, published 2009):

Test: Cytotoxicity tests of photoinitiator in polymer system
Format: cell-based
Settings: photoinitiator at about 0.01-1 wt % of the polymer system
Procedure: A UV-Lamp (Model B100AP; Black-Ray) was used to photopolymerize the solutions for 10 minutes at an intensity of 10 mW/cm^2. The mould is slowly but constantly rotated during photopolymerization. After processing of all materials, polymers were heat treated at 90° C. for 1 hour to ensure the complete conversion of monomers. The photoinitiator 2,2-dimethoxy-2-phenylacetephenone was used although a variety of other initiators can also be used. […] Glass transition temperature (Tg) and rubbery modulus can be controlled by, for example, changing the weight percent (wt %) of the crosslinker, for example, PEGDMA (Mn 550) as shown in FIG. 9.

COC(OC)(C(=O)c1ccccc1)c1ccccc1 [2,2-dimethoxy-2-phenylacetephenone]
biocompatibility of the polymer (cytotoxicity tests): should not affect the biocompatibility of the polymer
